The source of these data is patent publication US10730866B2, “Indole derivatives and use thereof” (Purdue Pharma L.P., priority 2014, dated 2020).

Structures are written as SMILES. Where only a bound is given, the exact number is not on record here.

Sequence of human Nav1.7 (Q15858 other isoform, or with tags, fused parts or gaps): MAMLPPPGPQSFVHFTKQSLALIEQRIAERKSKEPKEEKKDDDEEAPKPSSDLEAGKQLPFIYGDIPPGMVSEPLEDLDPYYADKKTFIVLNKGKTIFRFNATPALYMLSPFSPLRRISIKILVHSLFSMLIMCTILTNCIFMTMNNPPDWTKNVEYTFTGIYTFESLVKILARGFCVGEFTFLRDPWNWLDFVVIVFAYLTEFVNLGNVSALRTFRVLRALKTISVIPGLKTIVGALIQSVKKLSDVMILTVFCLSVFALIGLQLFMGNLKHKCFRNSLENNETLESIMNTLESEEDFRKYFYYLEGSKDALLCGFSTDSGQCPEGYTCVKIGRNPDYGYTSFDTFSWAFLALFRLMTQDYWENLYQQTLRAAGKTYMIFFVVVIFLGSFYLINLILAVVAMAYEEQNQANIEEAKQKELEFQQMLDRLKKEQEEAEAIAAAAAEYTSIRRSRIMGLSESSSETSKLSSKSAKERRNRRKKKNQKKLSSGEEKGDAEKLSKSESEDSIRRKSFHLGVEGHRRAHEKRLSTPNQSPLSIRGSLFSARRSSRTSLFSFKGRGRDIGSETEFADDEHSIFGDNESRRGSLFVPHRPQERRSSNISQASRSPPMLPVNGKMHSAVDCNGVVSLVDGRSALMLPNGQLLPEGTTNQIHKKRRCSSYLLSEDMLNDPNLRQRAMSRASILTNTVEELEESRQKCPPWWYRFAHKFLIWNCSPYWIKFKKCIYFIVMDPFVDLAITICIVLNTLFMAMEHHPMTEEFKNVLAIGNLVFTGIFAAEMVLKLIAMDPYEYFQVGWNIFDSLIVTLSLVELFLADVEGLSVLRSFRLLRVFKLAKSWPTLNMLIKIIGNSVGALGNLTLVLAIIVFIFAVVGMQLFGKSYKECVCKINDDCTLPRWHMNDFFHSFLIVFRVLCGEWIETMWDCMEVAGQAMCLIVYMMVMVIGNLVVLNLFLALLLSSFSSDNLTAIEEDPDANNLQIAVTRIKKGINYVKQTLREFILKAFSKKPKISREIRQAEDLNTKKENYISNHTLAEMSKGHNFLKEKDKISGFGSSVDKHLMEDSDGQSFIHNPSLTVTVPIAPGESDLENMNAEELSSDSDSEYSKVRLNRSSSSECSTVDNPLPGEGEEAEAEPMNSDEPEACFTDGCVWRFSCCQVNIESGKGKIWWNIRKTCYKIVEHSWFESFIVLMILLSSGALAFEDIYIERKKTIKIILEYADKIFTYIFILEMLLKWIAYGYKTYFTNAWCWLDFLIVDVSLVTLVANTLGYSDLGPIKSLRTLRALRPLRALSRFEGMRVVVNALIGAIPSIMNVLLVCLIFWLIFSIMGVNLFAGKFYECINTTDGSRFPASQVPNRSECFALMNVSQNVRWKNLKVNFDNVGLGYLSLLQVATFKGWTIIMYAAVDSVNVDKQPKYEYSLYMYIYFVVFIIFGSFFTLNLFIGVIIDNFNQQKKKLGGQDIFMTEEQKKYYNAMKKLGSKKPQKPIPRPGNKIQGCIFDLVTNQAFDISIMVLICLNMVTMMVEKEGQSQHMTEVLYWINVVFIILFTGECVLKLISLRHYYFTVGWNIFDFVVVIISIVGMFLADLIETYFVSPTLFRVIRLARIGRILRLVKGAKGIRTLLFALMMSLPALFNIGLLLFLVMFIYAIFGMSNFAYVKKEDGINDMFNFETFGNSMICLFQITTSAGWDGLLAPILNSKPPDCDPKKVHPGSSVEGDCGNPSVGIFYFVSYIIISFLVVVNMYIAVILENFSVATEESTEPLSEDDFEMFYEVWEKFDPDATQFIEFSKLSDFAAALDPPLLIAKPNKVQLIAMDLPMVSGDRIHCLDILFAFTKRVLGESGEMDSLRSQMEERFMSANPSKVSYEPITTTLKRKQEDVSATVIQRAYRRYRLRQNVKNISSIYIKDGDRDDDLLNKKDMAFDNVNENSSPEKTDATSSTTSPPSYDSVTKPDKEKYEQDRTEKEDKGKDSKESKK

This test has as its target human Nav1.7 (Homo sapiens (Human), UniProt Q15858). Kind of test: FLIPR or FLIPR TETRA sodium dye assay for sodium channel blocking activity. Type of test: cell-based. Conditions: recombinant HEK293 cells expressing human Nav1.7. How it is done:
In vitro assays were performed in a recombinant cell line expressing cDNA encoding the alpha subunit (Nav1.7, SCN9a, PN1, NE) of human Nav1.7 (Accession No. NM_002977). The cell line was provided by investigators at Yale University (Cummins et al, J. Neurosci. 18(23): 9607-9619 (1998)). For dominant selection of the Nav1.7-expressing clones, the expression plasmid co-expressed the neomycin resistance gene. The cell line was constructed in the human embryonic kidney cell line, HEK293, under the influence of the CMV […] promoter, and stable clones were selected using limiting dilution cloning and antibiotic selection using the neomycin analogue, G418. Recombinant beta and gamma subunits were not introduced into this cell line. Additional cell lines expressing recombinant Nav1.7 cloned from other species can also be used, alone or in combination with various beta subunits, gamma subunits or chaperones.
Unless otherwise noted, cell culture reagents were purchased from Mediatech of Herndon, Va. The recombinant Nav1.7/HEK293 cells were routinely cultured in growth medium consisting of Dulbecco's […] essential medium containing 10% fetal bovine serum (FBS, Hyclone, Thermo Fisher Scientific, Logan, Utah), 100 U/mL penicillin, 100 μg/mL streptomycin, 2-4 mM L-glutamine, and […] G418. For natural, non-recombinant cell lines, the selective antibiotic was omitted, and additional media formulations can be applied as needed.
The final buffer consisted of 20 mM Hepes, pH 7.3, 1.261 mM CaCl2, 0.493 mM MgCl2, 0.407 mM Mg(SO)4, 5.33 mM KCl, 0.441 mM KH2PO4, 137 mM NaCl, 0.336 mM Na2HPO4 and […] D-glucose (Hanks et al., Proc. Soc. Exp. Biol. Med. 71:196 (1949)), and the simple formulation was typically the basic buffer throughout the assay (i.e., all wash and addition steps).
The fluorescence indicator used in the primary fluorescence assay was the cell permeant version of CoroNa™ Green (Invitrogen, Molecular Probes, Eugene, Oreg.), a dye that emits light in the fluorescence range (Harootunian et al., J. Biol. Chem. 264(32):19458-19467 (1989)). The intensity of this emission, but not the wavelength range, is increased when the dye is exposed to Na^+ ions, which it can bind with partial selectivity. Cells expressing Nav1.7 or other sodium channels were loaded with the CoroNa™ Green dye immediately in advance of the fluorescence assay, and then, after agonist stimulation, the mobilization of Na^+ ions was detected as the Na^+ ions flowed from the extracellular fluid into the cytoplasm through the activated sodium channel pores. The dye was stored in the dark as a lyophilized powder, and then an aliquot was dissolved immediately before the cell loading procedure, according to the instructions of the manufacturer, to a stock concentration of 10 mM in DMSO. It was then diluted in the assay buffer to a 4× concentrated working solution, so that the final concentration of dye in the cell loading buffer was 5 μM.
In the fluorescence assays, two agonists were used in combination, namely 1) veratridine; and 2) the venom from the yellow scorpion, Leiurus quinquestriatus hebraeus. Veratridine is an alkaloid small molecule that facilitates the capture of channel openings by inhibiting inactivation, and the scorpion venom is a natural preparation that includes peptide toxins selective for different subsets of voltage-gated sodium channels. These scorpion toxins inhibit the fast inactivation of their cognate target channels. Stock solutions of the agonists were prepared to 40 mM in DMSO (veratridine) and 1 mg/mL in dH2O (scorpion venom), and then diluted to make a 4× or 2× stock (depending on the particular assay) in assay buffer, the final concentration being 100 μM (veratridine) and 10 μg/mL (scorpion venom). Both of the agonists were purchased from Sigma Aldrich, St. Louis, Mo.
Test compounds were dissolved in DMSO to yield 10 mM stock solutions. […]
Regarding `Cn1ccc2cc(-c3cccc(C(=O)Nc4ccc(C(F)(F)F)cc4)n3)ccc21` [Compound 75, 6-(1-methyl-1H-indol-5-yl)-N-(4-(trifluoromethyl)phenyl)picolinamide], the half-maximal inhibitory concentration (IC50) stood at 3.03 ± 0.837 µM.

As to `NC(=O)c1cccc(-c2ccc3c(ccn3CCC3CCCCC3)c2)n1` [Compound 63, 6-(1-(2-cyclohexylethyl)-1H-indol-5-yl)picolinamide], the half-inhibitory concentration (IC50) worked out at 1.12 ± 0.182 µM.

Take `C[C@H](Nc1cc(C(N)=O)nc(-c2ccc3c(ccn3CC3CCCCC3)c2)n1)C(N)=O` [Compound 113, (S)-6-((1-amino-1-oxopropan-2-yl)amino)-2-(1-(cyclohexylmethyl)-1H-indol-5-yl)pyrimidine-4-carboxamide]: the IC50 was 4.43 ± 0.541 µM.

As to `CC(C)Cn1ccc2cc(-c3cccc([C@H](O)[C@@H](O)C(N)=O)n3)ccc21` [Compound 153, (2R,3S)-2,3-dihydroxy-3-(6-(1-isobutyl-1H-indol-5-yl)pyridin-2-yl)propanamide], the IC50 stood at 2.62 ± 0.071 µM.

On to `NC(=O)c1cccc(-c2ccc3c(c2)c(C(N)=O)cn3Cc2ccc(C(F)(F)F)cc2)n1` [Compound 142, 5-(6-carbamoylpyridin-2-yl)-1-(4-(trifluoromethyl)benzyl)-1H-indole-3-carboxamide], for which the IC50 is > 20 µM.

For `C[C@H](Nc1cc(C(N)=O)nc(-c2ccc3c(ccn3Cc3ccc(C(F)(F)F)cc3)c2)n1)C(N)=O` [Compound 112, (S)-6-((1-amino-1-oxopropan-2-yl)amino)-2-(1-(4-(trifluoromethyl)benzyl)-1H-indol-5-yl)pyrimidine-4-carboxamide], the IC50 is 4.12 ± 0.525 µM.

For `NC(=O)c1cccc(-c2ccc3c(ccn3S(=O)(=O)c3ccc(C(F)(F)F)cc3)c2)n1` [Compound 57, 6-(1-((4-(trifluoromethyl)phenyl)sulfonyl)-1H-indol-5-yl)picolinamide], the IC50 is 0.658 ± 0.078 µM.

As to `O=C(NC1CCCCC1)c1cccc(-c2ccc3[nH]ccc3c2)n1` [Compound 76, N-cyclohexyl-6-(1H-indol-5-yl)picolinamide], the IC50 worked out at 0.167 ± 0.02 µM.

Turning to `Cc1nc(Cn2ccc3cc(-c4cccc(C(N)=O)n4)ccc32)cs1` [Compound 68, 6-(1-((2-methylthiazol-4-yl)methyl)-1H-indol-5-yl)picolinamide], the IC50 lay in the range of 10 to 20 µM.

Turning to `NC(=O)c1c[nH]c2ccc(-c3cccc(C(=O)Nc4ccc(C(F)(F)F)cc4)n3)cc12` [Compound 140, 5-(6-((4-(trifluoromethyl)phenyl)carbamoyl)pyridin-2-yl)-1H-indole-3-carboxamide], the IC50 is > 20 µM.

For `NC(=O)c1cc(O[C@H]2CCNC2=O)nc(-c2ccc3[nH]ccc3c2)n1` [Compound 37, (S)-2-(1H-indol-5-yl)-6-((2-oxopyrrolidin-3-yl)oxy)pyrimidine-4-carboxamide], the IC50 was > 20 µM.

In the case of `O=S(=O)(N1CCCCC1)n1ccc2cc(-c3cccc([C@H](O)CO)n3)ccc21` [Compound 111, (S)-1-(6-(1-(piperidin-1-ylsulfonyl)-1H-indol-5-yl)pyridin-2-yl)ethane-1,2-diol], the IC50 stood at 0.716 ± 0.073 µM.

In the case of `O=C(Nc1ccc(C(F)(F)F)cc1)c1cc(N[C@H]2CCNC2=O)cc(-c2ccc3[nH]ccc3c2)n1` [Compound 88, (S)-6-(1H-indol-5-yl)-4-((2-oxopyrrolidin-3-yl)amino)-N-(4-(trifluoromethyl)phenyl)picolinamide], the IC50 was determined as 4.89 ± 0.388 µM.

On to `NC(=O)c1cc(N[C@H]2CCNC2=O)nc(-c2ccc3c(c2)ncn3-c2ccc(C(F)(F)F)cc2)n1` [Compound 45, (S)-6-((2-oxopyrrolidin-3-yl)amino)-2-(1-(4-(trifluoromethyl)phenyl)-1H-benzo[d]imidazol-5-yl)pyrimidine-4-carboxamide], for which the IC50 worked out at 7.21 ± 0.562 µM.

On to `O=C(c1cccc(-c2ccc3[nH]ccc3c2)n1)N1CCCC1` [Compound 84, (6-(1H-indol-5-yl)pyridin-2-yl)(pyrrolidin-1-yl)methanone], for which the IC50 is > 20 µM.

With `OC[C@@H](O)c1cccc(-c2ccc3c(c2)ncn3Cc2ccc(C(F)(F)F)cc2)n1` [Compound 110, (S)-1-(6-(1-(4-(trifluoromethyl)benzyl)-1H-benzo[d]imidazol-5-yl)pyridin-2-yl)ethane-1,2-diol], the half-maximal inhibitory concentration (IC50) is 3.44 ± 0.712 µM.

As to `CC1CN(C(=O)c2cccc(-c3ccc4[nH]ccc4c3)n2)CC(C)O1` (stereo not shown) [Compound 86, (6-(1H-indol-5-yl)pyridin-2-yl)(2,6-dimethylmorpholino)methanone], the IC50 is > 20 µM.

In the case of `NC(=O)c1cccc(-c2ccc3c(c2)c(CN[C@H]2CCNC2=O)cn3CC2CCCCC2)n1` [Compound 145, (S)-6-(1-(cyclohexylmethyl)-3-(((2-oxopyrrolidin-3-yl)amino)methyl)-1H-indol-5-yl)picolinamide], the half-maximal inhibitory concentration (IC50) is 10 to 20 µM.

Turning to `NC(=O)CC[C@H](NC(=O)c1c[nH]c2ccc(-c3cccc(C(=O)Nc4ccc(C(F)(F)F)cc4)n3)cc12)C(N)=O` [Compound 141, (S)-2-(5-(6-((4-(trifluoromethyl)phenyl)carbamoyl)pyridin-2-yl)-1H-indole-3-carboxamido)pentanediamide], the IC50 was > 20 µM.

Take `Cn1cc(-c2ccc(C(F)(F)F)cc2)c2cc(-c3cccc(C(N)=O)n3)ccc21` [Compound 130, 6-(1-methyl-3-(4-(trifluoromethyl)phenyl)-1H-indol-5-yl)picolinamide]: the IC50 is > 20 µM.

Turning to `NC(=O)c1cc(N[C@H]2CCNC2=O)nc(-c2ccc3[nH]ccc3c2)n1` [Compound 36, (S)-2-(1H-indol-5-yl)-6-((2-oxopyrrolidin-3-yl)amino)pyrimidine-4-carboxamide], the 50% inhibitory concentration (IC50) was > 20 µM.

Consider `COc1ccc(-c2nc3cc(-c4nc(N[C@H]5CCNC5=O)cc(C(N)=O)n4)ccc3n2-c2ccc(F)cc2)c(OC)c1` [Compound 42, (S)-2-(2-(2,4-dimethoxyphenyl)-1-(4-fluorophenyl)-1H-benzo[d]imidazol-5-yl)-6-((2-oxopyrrolidin-3-yl)amino)pyrimidine-4-carboxamide], for which the IC50 is 2.02 ± 0.146 µM.

As for `NC(=O)c1cccc(-c2ccc3c(ccn3CCN3CCOCC3)c2)n1` [Compound 65, 6-(1-(2-morpholinoethyl)-1H-indol-5-yl)picolinamide], the IC50 was > 20 µM.

Turning to `NC(=O)c1cccc(-c2ccc3c(ccn3Cc3ccc(C(F)(F)F)cc3)c2)n1` [Compound 56, 6-(1-(4-(trifluoromethyl)benzyl)-1H-indol-5-yl)picolinamide], the half-maximal inhibitory concentration (IC50) was determined as 0.23 ± 0.026 µM.

For the compound `NC(=O)c1cccc(-c2ccc3c(ccn3CC3CCCCC3)c2)n1` [Compound 58, 6-(1-(cyclohexylmethyl)-1H-indol-5-yl)picolinamide], the IC50 was 0.237 ± 0.062 µM.

As for `O=C(Nc1ccc(C(F)(F)F)cc1)c1cccc(-c2ccc3occc3c2)n1` [Compound 81, 6-(benzofuran-5-yl)-N-(4-(trifluoromethyl)phenyl)picolinamide], the IC50 stood at 0.782 ± 0.044 µM.

`NC(=O)c1csc(-c2ccc3c(ccn3Cc3ccc(C(F)(F)F)cc3)c2)n1` [Compound 156, 2-(1-(4-(trifluoromethyl)benzyl)-1H-indol-5-yl)thiazole-4-carboxamide]: the IC50 worked out at 0.173 ± 0.018 µM.

With `OC[C@@H](O)c1ccnc(-c2ccc3ncn(-c4ccc(C(F)(F)F)cc4)c3c2)n1` [Compound 51, (S)-1-(2-(1-(4-(trifluoromethyl)phenyl)-1H-benzo[d]imidazol-6-yl)pyrimidin-4-yl)ethane-1,2-diol], the IC50 turned out to be 3.51 ± 0.733 µM.
